Each block holds one compound with its values, some of them ahead of it.
Legend:
[1] = molecular target: T1, α1AR-D4.4R (D4.4R read-out) (Homo sapiens, UniProt P21917); assay: BRET beta-arrestin-2-Rluc recruitment to alpha1AR-YFP in HEK-293T; assay type: cell-based
T1 construct: gene DRD4; D4.4R (non-fused) co-expressed with alpha1AR in HEK-293T; alpha1AR non-fused in Gi assay, alpha1AR-YFP in beta-arrestin-2 assay; with Alpha-1A adrenergic receptor
T1 sequence (P21917 1-419): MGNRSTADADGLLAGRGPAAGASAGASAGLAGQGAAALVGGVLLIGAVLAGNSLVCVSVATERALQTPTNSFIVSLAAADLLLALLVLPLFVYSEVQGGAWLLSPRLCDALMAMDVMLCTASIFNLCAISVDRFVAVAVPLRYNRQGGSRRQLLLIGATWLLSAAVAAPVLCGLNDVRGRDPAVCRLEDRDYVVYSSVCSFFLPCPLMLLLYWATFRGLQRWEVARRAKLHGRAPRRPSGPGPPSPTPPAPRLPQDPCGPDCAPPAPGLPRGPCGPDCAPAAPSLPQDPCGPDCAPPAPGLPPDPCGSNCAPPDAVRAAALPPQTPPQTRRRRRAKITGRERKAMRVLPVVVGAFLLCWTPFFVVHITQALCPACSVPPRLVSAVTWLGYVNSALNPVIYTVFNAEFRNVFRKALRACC
T1 sequence (P35348 1-466 partner): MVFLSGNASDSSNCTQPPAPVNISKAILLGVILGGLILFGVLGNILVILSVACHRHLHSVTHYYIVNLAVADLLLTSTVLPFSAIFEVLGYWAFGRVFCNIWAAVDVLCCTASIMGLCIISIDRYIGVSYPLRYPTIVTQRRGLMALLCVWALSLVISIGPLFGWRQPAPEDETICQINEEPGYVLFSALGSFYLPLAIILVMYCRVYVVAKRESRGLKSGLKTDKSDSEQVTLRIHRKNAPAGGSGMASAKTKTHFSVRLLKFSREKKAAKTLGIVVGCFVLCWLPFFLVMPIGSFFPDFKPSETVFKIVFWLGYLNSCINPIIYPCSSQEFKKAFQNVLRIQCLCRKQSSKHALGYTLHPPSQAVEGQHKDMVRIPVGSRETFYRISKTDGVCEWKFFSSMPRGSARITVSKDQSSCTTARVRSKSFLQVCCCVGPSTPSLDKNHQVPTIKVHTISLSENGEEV
Excerpt: BRET beta-arrestin-2-Rluc recruitment to alpha1AR-YFP in HEK-293T on α1AR-D4.4R (D4.4R read-out)

D4.4R = molecular target: T2, D4.4R (Homo sapiens, UniProt P21917); assay type: cell-based; settings: antagonist 1 μM, added 10 min before dopamine; D4.4R alone
T2 construct: gene DRD4; non-fused full-length human D4.4R in pcDNA3.1, transiently expressed in HEK-293T without alpha1AR; Galphai1-Rluc, Ggamma2-YFP and Gbeta1 reporters co-transfected
T2 sequence (P21917 1-419): T1 sequence (P21917 1-419)

α1AR [2] = molecular target: T3, α1AR (Homo sapiens, UniProt P35348); assay: BRET Gq and Gs activation in HEK-293T; assay type: cell-based; settings: agonist; alpha1AR alone; 10 μM dopamine; intact cells
T3 construct: gene ADRA1A; non-fused full-length human alpha1AR in pcDNA3.1, transiently expressed in HEK-293T without D4R; Galphaq-Rluc or Galphas-Rluc, Ggamma2-YFP and Gbeta1 reporters co-transfected
T3 sequence (P35348 1-466): T1 sequence (P35348 1-466 partner)

α1AR [3] = molecular target: T3, α1AR; assay type: cell-based; settings: antagonist 1 μM, added 10 min before A61603; alpha1AR alone
[4] = molecular target: human α1A adrenoreceptor fused to Rluc (human) (UniProt P35348); assay: FRET or BRET; BRET saturation in intact HEK-293T cells: constant amount of cDNA of the Rluc-fused receptor, increasing amounts of cDNA of the YFP-fused receptor; coelenterazine H 5 μM; HBSS with 0.1% glucose; single-phase saturation fit
[5] = molecular target: human dopamine D4 receptor, polymorphic variant D4.4R, fused to Rluc (human) (UniProt P21917); assay: as above

EC50 [1]: 30 ± 19 nM
Compound: Cc1cccc(NC(=O)CN2CCC(c3ccccn3)CC2)c1 [A412997]

Compound: Clc1ccc(N2CCN(Cc3c[nH]c4ncccc34)CC2)cc1 [L745870]
BRET Gi1 activation in HEK-293T, antagonism of dopamine (D4.4R): the selective D4R antagonist L745870, but not the α1AR antagonist prazosin, antagonized the effect of dopamine

% of norepinephrine effect at 10 μM (α1AR [2]): < 50%
Compound: NCCc1ccc(O)c(O)c1 [dopamine]

Compound: COc1cc2nc(N3CCN(C(=O)c4ccco4)CC3)nc(N)c2cc1OC [prazosin]
BRET Gq and Gs activation in HEK-293T, antagonism of A61603 (α1AR [3]): the effect of A61603 was counteracted by prazosin

BRET50 [4]: 25
Compound: human dopamine D4 receptor, polymorphic variant D4.7R, fused to YFP

BRET50 [5]: 33
Compound: human α1A adrenoreceptor fused to YFP (from UniProt P35348 1-466)

— publication PMC10533593 (Molecular Neurobiology, 2023)
